Assays:
IPN [1] = experiment: Performance (growth reduction) of Atlantic salmon following IPN challenge; format: in vivo
Method: This study evaluated dietary alpha-lipoic acid at 3 doses 500, 750 and 1000 mg/kg compared to control basal diet fed fish for performance after disease (IPN) challenge in atlantic salmon and was carried out in succession of the fifth study by weighting the fish and comparing the challenged LA and control fed fish with the unchallenged control fed fish.

Noda Virus (VNN) = experiment: Mortality in Sea Bass fry following VNN (Noda virus) challenge by cohabitation; format: in vivo
Method: The seventh study evaluated dietary alpha-lipoic acid (LA) at 250, 500 and 750 mg/kg compared to control basal diet fed fish in Sea Bass fry. Pre-feeding experimental diets for 5-6 weeks, growing from ˜0.7 g to ˜1.4 g. Water temperature at 25° C. 133 fish per diet (tank). Disease challenge by cohabitation with fish infected with Noda Virus (VNN). This was intended to transmit the infection to the test groups. Mortality was recorded daily.

phagocytes = experiment: Oxidative burst of phagocytes from rainbow trout fed LA; format: cell-based; conditions: rainbow trout fed 125, 250 and 500 mg/kg for 4 weeks; any treatment group vs control
Method: (§1) Rainbow trout were fed for 4 weeks with graded levels of LA (125, 250 and 500 mg/kg) compared to basal control diet fed fish. A range of functional immune assays of tissues/cells obtained at the end of the feeding period were conducted to investigate the possible mode of action observed in the disease challenge studies.
The capacity of Oxidative burst of phagocytes was assayed to assess anti-oxidation or pro-oxidation activity, as widely reported for use of LA (Kutter et al., 2014).

[2] = tested on: white spot syndrome virus (WSSV); experiment: Mortality in shrimp following WSSV challenge; format: in vivo
Method: The fourth study evaluated dietary alpha-lipoic acid at 650 mg/kg compared to control basal diet fed shrimp for resistance to white spot syndrome virus disease (WSSV). The experiment was carried out under standard conditions for shrimp. Pre-feeding experimental diets for ˜4 weeks. Mortality was recorded daily.

Salmon Alfa Virus (SAV) = experiment: Mortality in Atlantic salmon fry following SAV challenge by cohabitation (Pancreas Disease); format: in vivo; conditions: for survival compared to control diet fed fish / Relative Percent Survival (RPS): Study 2, SAV challenge; for end mortality compared to control: Study 3, all three SAV challenge trials
Method: (§2) The first study evaluated dietary alpha-lipoic acid (LA) at 500 mg/kg compared to control basal diet fed fish. Pre-feeding experimental diets for ˜5 weeks, growing from ˜0.2 g to ˜0.5 g in 4 replicate tanks per diet. Water temperature at 12° C.±1° C. Min. 30 fish per diet (tank). Disease challenge by cohabitation with fish infected with Salmon Alfa Virus (SAV).
(§3) This was intended to transmit the infection to the test groups leading to clinical Pancreas Disease (PD). The challenge lasted for 9.5 weeks (˜2 g), mortality recorded daily.
The second study evaluated dietary alpha-lipoic acid at 3 doses 125, 250 and 500 mg/kg compared to control basal diet fed fish for resistance to virus disease (PD). The experiment was carried out as described for the first study.
In this study three separate virus challenge trials evaluated dietary alpha-lipoic acid at 3 doses 250, 500 and 1000 mg/kg compared to control basal diet fed fish for resistance to virus disease (PD). The experiment was carried out as described for the first study.

IPN [3] = experiment: Mortality in Atlantic salmon following IPN challenge; format: in vivo; conditions: A. salmon
Method: as §2, §3
The fourth study evaluated dietary alpha-lipoic acid at 3 doses 500, 750 and 1000 mg/kg compared to control basal diet fed fish for resistance to virus disease (IPN). The experiment was carried out as described for the first study.

[4] = Feed conversion ratio (FCR) in rainbow trout; format: in vivo; conditions: for (Cumulative) Feed conversion ratio (FCR), Feed as fed basis (kg)/weight gain (kg), Mean: rainbow trout
Method: This study evaluated dietary alpha-lipoic acid at 3 doses 250, 500 and 1000 mg/kg compared to control basal diet fed fish for feed conversion ratio. Rainbow trout with an initial weight around 50 g were fed for ˜6 weeks with graded levels of LA compared to basal control diet fed fish in 4 replicate tanks per diet with 50 fish per tank. The fish were fed automatically and daily with an excess of experimental diets with regard to feeding instructions for control basal diet and weighted every two weeks. Excess feed was removed daily.

lymphocytes = experiment: Apoptosis of lymphocytes from rainbow trout fed LA; format: cell-based
Method: as §1
The apoptosis pathway (programmed cell death) was investigated by assaying the ability of lymphocytes to prevent apoptosis occurring following incubation with Campto, a chemical stimulator of apoptosis. […] This level of reduction in apoptosis is quite remarkable.

O=C(O)CCCCC1CCSS1 (stereo not drawn) [alpha-lipoic acid]
performance compared to challenged control diet fed fish (IPN [1]; 500 mg/kg): performed better | performance compared to challenged control diet fed fish (IPN [1]; 750 mg/kg): significantly better performance | performance compared to challenged control diet fed fish (IPN [1]; 1000 mg/kg): did not perform significantly better | Mean Survival (Noda Virus (VNN); 250 ppm in diet): 84.2% | Mean mortality (Noda Virus (VNN); 250 ppm in diet): 15.8% | RPS (Noda Virus (VNN); 250 ppm in diet vs control): 59.6% | RPS (Noda Virus (VNN); 250 ppm in diet vs control, listed as lipoic acid): 60% | Mean Survival (Noda Virus (VNN); 500 ppm in diet): 86.7% | Mean mortality (Noda Virus (VNN); 500 ppm in diet): 13.3% | RPS (Noda Virus (VNN); 500 ppm in diet vs control): 66.0% | RPS (Noda Virus (VNN); 500 ppm in diet vs control, listed as lipoic acid): 66% | Mean Survival (Noda Virus (VNN); 750 ppm in diet): 78.3% | Mean mortality (Noda Virus (VNN); 750 ppm in diet): 21.7% | RPS (Noda Virus (VNN); 750 ppm in diet vs control): 44.7% | RPS (Noda Virus (VNN); 750 ppm in diet vs control, listed as lipoic acid): 45% | extracellular or intracellular oxidative burst of phagocytes (phagocytes): no significant difference | Mean Survival ([2]; 650 ppm in diet): 30.0% | Mean mortality ([2]; 650 ppm in diet): 70.0% | RPS ([2]; 650 ppm in diet vs control): 8.7% | relative percent survival (RPS) compared to control diet (Salmon Alfa Virus (SAV); Study 1, 500 mg/kg feed, A. salmon fry, SAV challenge 9.5 weeks): 63% | survival compared to control diet fed fish (Salmon Alfa Virus (SAV); 125 mg/kg): no observed effect | survival compared to control diet fed fish (Salmon Alfa Virus (SAV); 250 mg/kg): tendency for improved survival but this was not statistically significant | Relative Percent Survival (RPS) (Salmon Alfa Virus (SAV); 125 ppm in diet vs control, A. salmon fry): −17% | Relative Percent Survival (RPS) (Salmon Alfa Virus (SAV); 250 ppm in diet vs control, A. salmon fry): 8% | Relative Percent Survival (RPS) (Salmon Alfa Virus (SAV); 500 ppm in diet vs control, A. salmon fry): 34% | Relative Percent Survival (RPS) (Salmon Alfa Virus (SAV); 500 ppm in diet vs control, A. salmon fry, listed as LA): 34% | end mortality compared to control (Salmon Alfa Virus (SAV); high dose 1000 mg/kg): significantly reduced | end mortality compared to control (Salmon Alfa Virus (SAV); medium dose 500 mg/kg): significantly reduced | RPS (IPN [3]; 500 ppm in diet vs control): 7.1% | RPS (IPN [3]; 500 ppm in diet vs control, listed as LA): 7% | Mean Survival (IPN [3]; 500 ppm in diet): 62.0% | Mean mortality (IPN [3]; 500 ppm in diet): 38.0% | RPS (IPN [3]; 750 ppm in diet vs control): 27.6% | RPS (IPN [3]; 750 ppm in diet vs control, listed as LA): 28% | Mean Survival (IPN [3]; 750 ppm in diet): 70.4% | Mean mortality (IPN [3]; 750 ppm in diet): 29.6% | RPS (IPN [3]; 1000 ppm in diet vs control): −1.0% | RPS (IPN [3]; 1000 ppm in diet vs control, listed as LA): −1% | Mean Survival (IPN [3]; 1000 ppm in diet): 58.7% | Mean mortality (IPN [3]; 1000 ppm in diet): 41.3% | (Cumulative) Feed conversion ratio (FCR), Feed as fed basis (kg)/weight gain (kg), Mean ([4]; AL 250, period 0-15 days): 0.65 | (Cumulative) Feed conversion ratio (FCR), Feed as fed basis (kg)/weight gain (kg), Mean ([4]; AL 250, period 0-30 days): 0.67 | (Cumulative) Feed conversion ratio (FCR), Feed as fed basis (kg)/weight gain (kg), Mean ([4]; AL 250, period 0-44 days): 0.67 | (Cumulative) Feed conversion ratio (FCR), Feed as fed basis (kg)/weight gain (kg), Mean ([4]; AL 500, period 0-15 days): 0.66 | (Cumulative) Feed conversion ratio (FCR), Feed as fed basis (kg)/weight gain (kg), Mean ([4]; AL 500, period 0-30 days): 0.67 | (Cumulative) Feed conversion ratio (FCR), Feed as fed basis (kg)/weight gain (kg), Mean ([4]; AL 500, period 0-44 days): 0.68 | (Cumulative) Feed conversion ratio (FCR), Feed as fed basis (kg)/weight gain (kg), Mean ([4]; AL 1000, period 0-15 days): 0.65 | (Cumulative) Feed conversion ratio (FCR), Feed as fed basis (kg)/weight gain (kg), Mean ([4]; AL 1000, period 0-30 days): 0.67 | (Cumulative) Feed conversion ratio (FCR), Feed as fed basis (kg)/weight gain (kg), Mean ([4]; AL 1000, period 0-44 days): 0.68 | feed conversion ratios compared to control diet fed fish ([4]; rainbow trout fed 250, 500 and 1000 mg/kg for ~6 weeks): improved | basal apoptosis activity of lymphocytes (lymphocytes; no Campto used, LA treatment groups, not significant): trend for lower basal apoptosis activity | apoptotic cells (lymphocytes) after incubation with Campto (lymphocytes; rainbow trout fed 500 mg/kg for 4 weeks): significant reduction | reduction of apoptotic cells (lymphocytes) after incubation with Campto (lymphocytes; rainbow trout fed graded levels 125, 250 and 500 mg/kg for 4 weeks): clear dose response

Reference: patent publication US20250295143A1, “USE OF ALPHA LIPOIC ACID AS A FEED ADDITIVE FOR AQUATIC ANIMALS” (DSM IP ASSETS B.V., priority 2018, published 2025)
